Source: the supplement of paper PMC5908809

Legend:
KHYG-1 (IL-2 2.5 ng/mL) [1] = test: percent inhibition of viability; higher = more inhibition; settings: 72 h
[2] = system: normal primary NK cells, pool 2 (3 donors) (IL-2 2.5 ng/mL); test: as above; settings: 72 h
DERL-7 (IL-2 2.5 ng/mL) [3] = test: as above; settings: 72 h
NKL (IL-2 2.5 ng/mL) [4] = test: as above; settings: 72 h
KAI3 (IL-2 2.5 ng/mL) [5] = test: as above; settings: 72 h
NK-92 (IL-2 2.5 ng/mL) [6] = test: as above; settings: 72 h
YT (IL-2 2.5 ng/mL) [7] = test: as above; settings: 72 h
[8] = system: normal primary NK cells, pool 3 (3 donors) (IL-2 2.5 ng/mL); test: as above; settings: 72 h
SNK-6 (IL-2 2.5 ng/mL) [9] = test: as above; settings: 72 h
[10] = system: normal primary NK cells, pool 1 (3 donors), resting (IL-2 0 ng/mL); test: as above; settings: 72 h
IMC-1 (IL-2 20 ng/mL) [11] = test: as above; settings: 72 h
NK-YS (IL-2 2.5 ng/mL) [12] = test: as above; settings: 72 h
[13] = system: normal primary NK cells, pool 1 (3 donors) (IL-2 2.5 ng/mL); test: as above; settings: 72 h
[14] = system: normal NK cells expanded with K562-aAPC; test: drug sensitivity score (DSS) (DSS units); higher = more sensitive; extreme values may be limits of the assay; settings: 72 h; IL-2 2.5 ng/mL
Procedure: (§1)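 Drug sensitivity and resistance testing on K562-aAPC-expanded normal NK cells: 5 concentrations (10-fold steps over a 10,000-fold range), 72 h at 37 °C, viability by CellTiter-Glo normalised to DMSO and benzethonium chloride controls; DSS from the fitted curve.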

KHYG-1 (IL-2 2.5 ng/mL) [15] = test: as above; settings: 72 h
[16] = system: normal primary NK cells, pool 2 (3 donors) (IL-2 2.5 ng/mL); test: as above; settings: 72 h
DERL-7 (IL-2 2.5 ng/mL) [17] = test: as above; settings: 72 h
NKL (IL-2 2.5 ng/mL) [18] = test: as above; settings: 72 h
KAI3 (IL-2 2.5 ng/mL) [19] = test: as above; settings: 72 h
NK-92 (IL-2 2.5 ng/mL) [20] = test: as above; settings: 72 h
YT (IL-2 2.5 ng/mL) [21] = test: as above; settings: 72 h
[22] = system: normal primary NK cells, pool 3 (3 donors) (IL-2 2.5 ng/mL); test: as above; settings: 72 h
SNK-6 (IL-2 2.5 ng/mL) [23] = test: as above; settings: 72 h
[24] = system: normal primary NK cells, pool 1 (3 donors), resting (IL-2 0 ng/mL); test: as above; settings: 72 h
IMC-1 (IL-2 20 ng/mL) [25] = test: as above; settings: 72 h
NK-YS (IL-2 2.5 ng/mL) [26] = test: as above; settings: 72 h
[27] = system: normal primary NK cells, pool 1 (3 donors) (IL-2 2.5 ng/mL); test: as above; settings: 72 h
[28] = system: normal NK cells expanded with K562-aAPC; test: percent inhibition of viability; higher = more inhibition; settings: 72 h, IL-2 2.5 ng/mL
Procedure: as §1

Cc1c(NC(=O)OC[C@@H]2COCCN2)cn2ncnc(Nc3ccc4c(cnn4Cc4cccc(F)c4)c3)c12 (max concentration tested 10000 nM)
percent inhibition of viability [%]
Settings	1 nM	10 nM	100 nM	1000 nM	10000 nM
DERL-7 (IL-2 2.5 ng/mL) [3]	-2.53	-0.41	-0.2	2.93	52.5
IMC-1 (IL-2 20 ng/mL) [11]	-5.26	-0.97	0.8	4.51	43.6
KAI3 (IL-2 2.5 ng/mL) [5]	1.51	4.45	5.56	-0.23	65.3
KHYG-1 (IL-2 2.5 ng/mL) [1]	4.55	7.44	7.32	8.8	77.5
NK-92 (IL-2 2.5 ng/mL) [6]	-5.71	-0.55	7.56	7.66	105
NK-YS (IL-2 2.5 ng/mL) [12]	1.47	0.48	3.03	2.38	38.8
NKL (IL-2 2.5 ng/mL) [4]	-10.7	1.23	-8.56	0.45	55.9
SNK-6 (IL-2 2.5 ng/mL) [9]	-6.28	-7.55	-9.76	-27.8	33.1
YT (IL-2 2.5 ng/mL) [7]	2.59	1.59	4.74	2.33	47.5
[2]	-13	-2.17	-2.11	0.64	57.2
[8]	-5.86	2.09	3.41	-2.09	44
[10]	4.93	-4.06	4.13	-12.6	58.4
[13]	1.48	-6.08	-9.4	-15	34.3
[28]	6.16	1.61	-2.01	5.74	30.1

Settings	drug sensitivity score
DERL-7 (IL-2 2.5 ng/mL) [17]	3.21
IMC-1 (IL-2 20 ng/mL) [25]	2.97
KAI3 (IL-2 2.5 ng/mL) [19]	3.56
KHYG-1 (IL-2 2.5 ng/mL) [15]	5.75
NK-92 (IL-2 2.5 ng/mL) [20]	7.04
NK-YS (IL-2 2.5 ng/mL) [26]	2.25
NKL (IL-2 2.5 ng/mL) [18]	3.06
SNK-6 (IL-2 2.5 ng/mL) [23]	0.86
YT (IL-2 2.5 ng/mL) [21]	2.8
[14]	2.22
[16]	3.16
[22]	2.07
[24]	2.48
[27]	1.06

C#Cc1cccc(Nc2ncnc3cc(OCCOC)c(OCCOC)cc23)c1 [Erlotinib] (max concentration tested 10000 nM)
percent inhibition of viability [%]
Settings	1 nM	10 nM	100 nM	1000 nM	10000 nM
DERL-7 (IL-2 2.5 ng/mL) [3]	0.1	-2.35	-1.33	1.39	48.4
IMC-1 (IL-2 20 ng/mL) [11]	1.33	9.48	7.46	12.3	22.8
KAI3 (IL-2 2.5 ng/mL) [5]	1.13	8.32	-5.25	20	58.5
KHYG-1 (IL-2 2.5 ng/mL) [1]	3.49	6.34	8.19	9.39	47.6
NK-92 (IL-2 2.5 ng/mL) [6]	9.74	4.56	24.3	25.9	43.1
NK-YS (IL-2 2.5 ng/mL) [12]	1.58	1.15	0.89	5.14	24.1
NKL (IL-2 2.5 ng/mL) [4]	5.31	4.23	11.4	14.5	38.5
SNK-6 (IL-2 2.5 ng/mL) [9]	7.98	8.62	18.3	17.6	32.2
YT (IL-2 2.5 ng/mL) [7]	8.58	6.57	10.3	17.4	38.6
[2]	-6.62	-1.77	13.4	4.86	41.7
[8]	-5.26	-4.35	6.24	-3.65	27.2
[10]	-2.01	-10.5	-8.04	-1.92	55.7
[13]	0.75	-3.53	2.15	-7.62	24.8
[28]	0.68	3.68	2.85	12.2	44.6

Settings	drug sensitivity score
DERL-7 (IL-2 2.5 ng/mL) [17]	2.71
IMC-1 (IL-2 20 ng/mL) [25]	1.94
KAI3 (IL-2 2.5 ng/mL) [19]	6.03
KHYG-1 (IL-2 2.5 ng/mL) [15]	4.03
NK-92 (IL-2 2.5 ng/mL) [20]	7.75
NK-YS (IL-2 2.5 ng/mL) [26]	1.63
NKL (IL-2 2.5 ng/mL) [18]	3.76
SNK-6 (IL-2 2.5 ng/mL) [23]	5.2
YT (IL-2 2.5 ng/mL) [21]	4.27
[14]	4.14
[16]	2.92
[22]	0.89
[24]	2.81
[27]	0.64

Cc1ccc(NC(=O)c2ccc(CN3CCN(C)CC3)cc2)cc1Nc1nccc(-c2cccnc2)n1 [Imatinib] (max concentration tested 10000 nM)
percent inhibition of viability [%]
Settings	1 nM	10 nM	100 nM	1000 nM	10000 nM
DERL-7 (IL-2 2.5 ng/mL) [3]	0.4	-1.51	5.95	10.5	87.7
IMC-1 (IL-2 20 ng/mL) [11]	-6.61	-9.38	0.61	-5.6	101
KAI3 (IL-2 2.5 ng/mL) [5]	-2.16	-7.49	-4.01	-0.85	74.1
KHYG-1 (IL-2 2.5 ng/mL) [1]	-2.34	-9.57	-7.02	0.18	101
NK-92 (IL-2 2.5 ng/mL) [6]	-3.36	0.75	-2.9	7.24	63.5
NK-YS (IL-2 2.5 ng/mL) [12]	0.66	-5.53	-1.76	2.33	70.3
NKL (IL-2 2.5 ng/mL) [4]	-12.3	-12.6	-18.4	-6.32	71.4
SNK-6 (IL-2 2.5 ng/mL) [9]	-9.34	-11	-25.2	-21.8	56.1
YT (IL-2 2.5 ng/mL) [7]	-0.33	-5.36	0.48	5.22	96.3
[2]	-11.8	-13	3.62	7.57	37.4
[8]	-7.45	-5.71	-0.28	8.35	31.7
[10]	-3.96	-13.2	7.28	11.9	79
[13]	-6.14	-4.91	10.5	15.8	64.8
[28]	-6.85	-3.28	-7.18	1.24	91.6

Settings	drug sensitivity score
DERL-7 (IL-2 2.5 ng/mL) [17]	6.62
IMC-1 (IL-2 20 ng/mL) [25]	5.24
KAI3 (IL-2 2.5 ng/mL) [19]	4.02
KHYG-1 (IL-2 2.5 ng/mL) [15]	5.74
NK-92 (IL-2 2.5 ng/mL) [20]	4.67
NK-YS (IL-2 2.5 ng/mL) [26]	4.18
NKL (IL-2 2.5 ng/mL) [18]	3.47
SNK-6 (IL-2 2.5 ng/mL) [23]	2.14
YT (IL-2 2.5 ng/mL) [21]	6.1
[14]	5.26
[16]	3.04
[22]	2.67
[24]	6.38
[27]	5.78
